Measurements: the supplement of paper PMC10307832

Experiments:
Experiment in all cases: relative viability (nuclei count vs DMSO), 5 days (fraction); higher = more cells survive
NCI-H1915 = tested on: NCI-H1915
How it was run: (§1)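 Medians of duplicate plates are given as relative viability. That measure is the nuclei count in treated wells divided by the count in vehicle wells. Counts were taken on 4× images of lung cancer cell lines in 1536-well plates, 5 days after pin-tool dosing the day after seeding with one drug alone or a fixed anchor-drug dose plus five library-drug doses (not always all listed) in √10 steps.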

PC-14 = tested on: PC-14
How it was run: as §1

HCC-366 = tested on: HCC-366
How it was run: as §1

LXF-289 = tested on: LXF-289
How it was run: as §1

HARA = tested on: HARA
How it was run: as §1

NCI-H1793 = tested on: NCI-H1793
How it was run: as §1

NCI-H1975 = tested on: NCI-H1975
How it was run: as §1

NCI-H2405 = tested on: NCI-H2405
How it was run: as §1

NCI-H460 = tested on: NCI-H460
How it was run: as §1

HCC-15 = tested on: HCC-15
How it was run: as §1

NCI-H441 = tested on: NCI-H441
How it was run: as §1

NCI-H3122 = tested on: NCI-H3122
How it was run: as §1

A-427 = tested on: A-427
How it was run: as §1

PC-3 [JPC-3] = tested on: PC-3 [JPC-3]
How it was run: as §1

NCI-H1755 = tested on: NCI-H1755
How it was run: as §1

NCI-H596 = tested on: NCI-H596
How it was run: as §1

NCI-H1437 = tested on: NCI-H1437
How it was run: as §1

H3255 = tested on: H3255
How it was run: as §1

NCI-H650 = tested on: NCI-H650
How it was run: as §1

O=c1[nH]c2ccccc2n1C1CCN(CCCC(c2ccc(F)cc2)c2ccc(F)cc2)CC1 [Pimozide] + NC(=O)Nc1cc(-c2cccc(F)c2)sc1C(=O)N[C@H]1CCCNC1 [AZD7762] (partner 0.2 µM)
relative viability (NCI-H1915; first compound 0.08 µM): 0.661
relative viability (NCI-H1915; first compound 0.253 µM): 0.61
relative viability (NCI-H1915; first compound 2.53 µM): 0.674
relative viability (NCI-H1915; first compound 8 µM): 0.718
relative viability (PC-14; first compound 0.253 µM): 0.348
relative viability (PC-14; first compound 0.8 µM): 0.271
relative viability (PC-14; first compound 2.53 µM): 0.328
relative viability (PC-14; first compound 8 µM): 0.402
relative viability (HCC-366; first compound 0.08 µM): 0.263
relative viability (HCC-366; first compound 0.253 µM): 0.258
relative viability (HCC-366; first compound 0.8 µM): 0.211
relative viability (HCC-366; first compound 2.53 µM): 0.246
relative viability (HCC-366; first compound 8 µM): 0.253
relative viability (LXF-289; first compound 0.08 µM): 1.07
relative viability (LXF-289; first compound 0.253 µM): 1.1
relative viability (LXF-289; first compound 0.8 µM): 1.08
relative viability (LXF-289; first compound 2.53 µM): 1.13
relative viability (LXF-289; first compound 8 µM): 0.962
relative viability (HARA; first compound 0.08 µM): 0.21
relative viability (HARA; first compound 0.253 µM): 0.48
relative viability (HARA; first compound 0.8 µM): 0.318
relative viability (HARA; first compound 2.53 µM): 0.197
relative viability (HARA; first compound 8 µM): 0.37
relative viability (NCI-H1793; first compound 0.08 µM): 0.553
relative viability (NCI-H1793; first compound 0.253 µM): 0.36
relative viability (NCI-H1793; first compound 0.8 µM): 0.352
relative viability (NCI-H1793; first compound 2.53 µM): 0.263
relative viability (NCI-H1793; first compound 8 µM): 0.28
relative viability (NCI-H1975; first compound 0.08 µM): 0.691
relative viability (NCI-H1975; first compound 0.253 µM): 0.635
relative viability (NCI-H1975; first compound 0.8 µM): 0.684
relative viability (NCI-H1975; first compound 2.53 µM): 0.649
relative viability (NCI-H1975; first compound 8 µM): 0.766
relative viability (NCI-H2405; first compound 0.08 µM): 0.741
relative viability (NCI-H2405; first compound 0.253 µM): 0.716
relative viability (NCI-H2405; first compound 0.8 µM): 0.673
relative viability (NCI-H2405; first compound 2.53 µM): 0.608
relative viability (NCI-H2405; first compound 8 µM): 0.426
relative viability (NCI-H460; first compound 0.08 µM): 0.615
relative viability (NCI-H460; first compound 0.253 µM): 0.539
relative viability (NCI-H460; first compound 0.8 µM): 0.625
relative viability (NCI-H460; first compound 2.53 µM): 0.693
relative viability (NCI-H460; first compound 8 µM): 0.549
relative viability (HCC-15; first compound 0.08 µM): 1.36
relative viability (HCC-15; first compound 0.253 µM): 0.545
relative viability (HCC-15; first compound 2.53 µM): 1.2
relative viability (HCC-15; first compound 8 µM): 1.16
relative viability (NCI-H441; first compound 0.08 µM): 1.32
relative viability (NCI-H441; first compound 0.253 µM): 0.806
relative viability (NCI-H441; first compound 0.8 µM): 1.26
relative viability (NCI-H441; first compound 2.53 µM): 1.09
relative viability (NCI-H441; first compound 8 µM): 1.04
relative viability (NCI-H3122; first compound 0.08 µM): 0.977
relative viability (NCI-H3122; first compound 0.253 µM): 0.882
relative viability (NCI-H3122; first compound 0.8 µM): 0.963
relative viability (NCI-H3122; first compound 2.53 µM): 1.05
relative viability (NCI-H3122; first compound 8 µM): 0.825
relative viability (A-427; first compound 0.08 µM): 0.711
relative viability (A-427; first compound 0.253 µM): 0.703
relative viability (A-427; first compound 0.8 µM): 0.764
relative viability (A-427; first compound 2.53 µM): 0.637
relative viability (A-427; first compound 8 µM): 0.676
relative viability (PC-3 [JPC-3]; first compound 0.253 µM): 0.719
relative viability (PC-3 [JPC-3]; first compound 0.8 µM): 0.72
relative viability (PC-3 [JPC-3]; first compound 2.53 µM): 0.832
relative viability (PC-3 [JPC-3]; first compound 8 µM): 0.751
relative viability (NCI-H1755; first compound 0.08 µM): 0.727
relative viability (NCI-H1755; first compound 0.253 µM): 0.42
relative viability (NCI-H1755; first compound 0.8 µM): 0.47
relative viability (NCI-H1755; first compound 2.53 µM): 0.533
relative viability (NCI-H1755; first compound 8 µM): 0.46
relative viability (NCI-H596; first compound 0.08 µM): 1.17
relative viability (NCI-H596; first compound 0.253 µM): 1.31
relative viability (NCI-H596; first compound 0.8 µM): 1.31
relative viability (NCI-H596; first compound 2.53 µM): 1.19
relative viability (NCI-H596; first compound 8 µM): 1.04
relative viability (NCI-H1437; first compound 0.08 µM): 1.14
relative viability (NCI-H1437; first compound 0.253 µM): 1.09
relative viability (NCI-H1437; first compound 0.8 µM): 1.03
relative viability (NCI-H1437; first compound 2.53 µM): 1.05
relative viability (NCI-H1437; first compound 8 µM): 1.09
relative viability (H3255; first compound 0.253 µM): 0.858
relative viability (H3255; first compound 0.8 µM): 0.777
relative viability (H3255; first compound 2.53 µM): 0.838
relative viability (H3255; first compound 8 µM): 0.879
relative viability (NCI-H650; first compound 0.08 µM): 1.17
relative viability (NCI-H650; first compound 0.253 µM): 0.983
relative viability (NCI-H650; first compound 0.8 µM): 0.831
relative viability (NCI-H650; first compound 2.53 µM): 0.909
relative viability (NCI-H650; first compound 8 µM): 0.693
